The nature of data set [1]: in-vivo plasma propranolol after topical application of TMAD on inner pinna of rabbit. The following applies: FIG. A-7, rabbits. The method, then:
(§1) Both in-vitro release and skin permeation studies can then be conducted by mounting the device (with or without skin) onto a Valia-Chien diffusion cell at 37° C. In-vivo studies can be conducted by placing the patch on the pinna (ear) of a rabbit and taking blood samples which can be analyzed for propranolol (results on the attached sheets).

The nature of data set [2]: in-vitro skin permeation of propranolol from TMAD (Valia-Chien diffusion cell, with skin). It is filed as in vitro ADME. The following applies: delivered from TMAD. The protocol:
as §1
In this case, the enhancer laminate would be fabricated by combining an aliphatic alcohol with adhesive in a 1.25:10 ratio. The enhancer laminate would then be solvent cast and laminated as in Example 1. The devices can then be evaluated in-vitro and in-vivo. (results shown on the attached sheets).

Data set [3] can be described thus: in-vitro release of propranolol from multilaminate transdermal device (Valia-Chien diffusion cell, without skin). It is filed as physicochemical. As to conditions: for RELEASE RATE OF PROPRANOLOL: Example 2, SPE-m-TAD. The method, then: as §1
The release rate of drug from the SPE-m-TAD can be changed by the alteration of the drug load in the outer drug laminate.

In the case of `CC(C)NCC(O)COc1cccc2ccccc12` (racemic) [propranolol, Propranolol], in data set [1] (24-hr topical application of TMAD on inner pinna ear), the “plasma concentration profiles of propranolol” value was “long-acting plasma concentration profiles”. Moreover, the “systemic bioavailability of propranolol, as shown by plasma levels” value in data set [1] (24-hr topical application of TMAD with various skin permeation enhancers) is on record as “improved the systemic bioavailability, as shown by elevated constant plasma levels”. For the same molecule, in data set [2] (FIG. A-4, dependence on alkyl chain length n of alcohols), the “enhancement in skin permeation rate of propranolol by alkyl alcohols” value was “The rate of skin permeation increases as increasing the alkyl chain length of the alcohols and reaches the maximum level at n=12~14”. Also, the “enhancement in skin permeation rate of propranolol by alkanoic acids” value in data set [2] (FIG. A-5, dependence on alkyl chain length n of acids) is “The rate of skin permeation shows a sinoidal dependence on the alkyl chain length of the acids and with the maximum rates at n=3 and 16”. The “enhancement in skin permeation rate of propranolol by esters of Lauric Acid (n=12)” value in data set [2] (FIG. A-6, dependence on alkyl chain length n of esters) is “The rate of skin permeation increases first and then levels off as increasging the alkyl chain length of the esters and reaches the maximum level at n=2”. The “RELEASE RATE OF PROPRANOLOL” value in data set [3] (propranolol drug load in outer drug laminate 3%) stood at 48.1 ug cm^-2 hr^-1; in data set [3] (propranolol drug load in outer drug laminate 5%), 49.9 ug cm^-2 hr^-1; in data set [3] (propranolol drug load in outer drug laminate 7%), 52.2 ug cm^-2 hr^-1; in data set [3] (propranolol drug load in outer drug laminate 20%), 59.1 ug cm^-2 hr^-1. Moreover, the drug release kinetics entry in data set [3] (FIG. A-2, only extremely small particle size (1.5 μm) propranolol crystals in outer laminate layer) is recorded as “Device-controlled zero-order drug release kinetics was achieved”. In addition, the “zero-order release profile of propranolol from TMAD, effect of skin permeation enhancers” value in data set [3] (FIG. A-3, various skin permeation enhancers in contact adhesive polymer coating) is listed as “did not affect the zero-order release profile”. The “overall release of propranolol from the device” value in data set [3] (SPE-m-TAD, decreasing drug load in outer drug laminate, particle size 1.5 microns) is “can be reduced, while still maintaining zero-order release kinetics”.

Values taken from patent US5045319A, “Transdermal dosage unit, system and process” (Rutgers, The State University of New Jersey, priority 1988, dated 1991).
